Assay results as given in ChEMBL document CHEMBL4420078, “Sos1 inhibitors for cancer treatment” (2016).
Blank lines part the entries; values can stand above or below the molecule they belong to. Calls of active or inactive are those of the source. No cut-off for these calls is given here.

What was measured:
[1] = system: HOP-92; assay: Antiproliferative activity against human HOP92 cells assessed as reduction in cell number incubated for 48 hrs by MTS assay; type: functional, cell-based
[2] = target: T1, Son of sevenless homolog 1 (Mus musculus) (UniProt Q62245); assay: Inhibition of SOS1 in overnight serum-starved mouse NIH/3T3 cells assessed as reduction in cell proliferation at 20 to 50 uM incubated for 3 days and measured every 24 hrs by MTS assay
T1 sequence (whole entry): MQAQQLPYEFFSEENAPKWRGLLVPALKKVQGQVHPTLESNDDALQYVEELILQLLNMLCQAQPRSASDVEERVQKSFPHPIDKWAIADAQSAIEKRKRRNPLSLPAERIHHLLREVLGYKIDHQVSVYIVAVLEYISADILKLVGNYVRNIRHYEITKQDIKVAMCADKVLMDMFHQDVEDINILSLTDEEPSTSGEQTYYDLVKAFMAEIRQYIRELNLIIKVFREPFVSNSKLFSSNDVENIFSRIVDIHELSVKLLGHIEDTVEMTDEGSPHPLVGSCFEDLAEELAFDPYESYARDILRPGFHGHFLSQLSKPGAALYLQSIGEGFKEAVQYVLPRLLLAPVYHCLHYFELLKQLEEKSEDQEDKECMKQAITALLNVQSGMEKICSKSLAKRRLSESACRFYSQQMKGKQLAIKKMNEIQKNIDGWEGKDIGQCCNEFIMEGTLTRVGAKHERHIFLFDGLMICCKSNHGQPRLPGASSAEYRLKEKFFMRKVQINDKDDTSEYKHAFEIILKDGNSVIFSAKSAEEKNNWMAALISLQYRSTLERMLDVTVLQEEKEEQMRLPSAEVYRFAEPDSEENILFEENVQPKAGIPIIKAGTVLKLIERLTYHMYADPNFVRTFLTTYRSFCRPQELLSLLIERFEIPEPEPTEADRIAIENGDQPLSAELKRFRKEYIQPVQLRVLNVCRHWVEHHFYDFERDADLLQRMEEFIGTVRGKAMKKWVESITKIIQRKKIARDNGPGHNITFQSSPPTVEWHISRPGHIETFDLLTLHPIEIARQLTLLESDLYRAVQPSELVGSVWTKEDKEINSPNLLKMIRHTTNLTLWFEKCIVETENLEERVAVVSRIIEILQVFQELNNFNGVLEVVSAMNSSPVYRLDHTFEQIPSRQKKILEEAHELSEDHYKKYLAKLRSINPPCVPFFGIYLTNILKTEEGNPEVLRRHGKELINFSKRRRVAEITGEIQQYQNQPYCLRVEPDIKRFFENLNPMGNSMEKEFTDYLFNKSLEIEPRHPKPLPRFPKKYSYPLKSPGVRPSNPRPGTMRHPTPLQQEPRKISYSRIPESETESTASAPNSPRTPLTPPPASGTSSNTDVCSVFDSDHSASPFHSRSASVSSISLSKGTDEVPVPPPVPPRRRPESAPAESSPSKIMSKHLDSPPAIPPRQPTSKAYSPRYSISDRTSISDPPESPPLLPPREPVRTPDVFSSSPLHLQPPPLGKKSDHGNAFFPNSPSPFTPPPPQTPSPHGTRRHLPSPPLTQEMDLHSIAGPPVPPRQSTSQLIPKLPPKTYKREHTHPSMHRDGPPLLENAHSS

[3] = system: OVCAR-3; assay: Antiproliferative activity against human OVCAR3 cells assessed as reduction in cell number incubated for 48 hrs by MTS assay; type: functional, cell-based
[4] = target: T1, Son of sevenless homolog 1 (Mus musculus); assay: Inhibition of SOS1 in overnight serum-starved mouse NIH/3T3 cells assessed as effect on Ras-GTP levels at 20 to 40 uM pre-incubated for 16 hrs before EGF stimulation for 5 mins by GST-Raf1 effector domain pulldown assay
[5] = target: T2, Son of sevenless homolog 1 (Homo sapiens) (UniProt Q07889); assay: Inhibition of SOS1 in overnight serum-starved human MIAPaCa2 cells assessed as reduction in EGFR phosphorylation at 20 to 40 uM by Western blotting analysis
T2 sequence (whole entry): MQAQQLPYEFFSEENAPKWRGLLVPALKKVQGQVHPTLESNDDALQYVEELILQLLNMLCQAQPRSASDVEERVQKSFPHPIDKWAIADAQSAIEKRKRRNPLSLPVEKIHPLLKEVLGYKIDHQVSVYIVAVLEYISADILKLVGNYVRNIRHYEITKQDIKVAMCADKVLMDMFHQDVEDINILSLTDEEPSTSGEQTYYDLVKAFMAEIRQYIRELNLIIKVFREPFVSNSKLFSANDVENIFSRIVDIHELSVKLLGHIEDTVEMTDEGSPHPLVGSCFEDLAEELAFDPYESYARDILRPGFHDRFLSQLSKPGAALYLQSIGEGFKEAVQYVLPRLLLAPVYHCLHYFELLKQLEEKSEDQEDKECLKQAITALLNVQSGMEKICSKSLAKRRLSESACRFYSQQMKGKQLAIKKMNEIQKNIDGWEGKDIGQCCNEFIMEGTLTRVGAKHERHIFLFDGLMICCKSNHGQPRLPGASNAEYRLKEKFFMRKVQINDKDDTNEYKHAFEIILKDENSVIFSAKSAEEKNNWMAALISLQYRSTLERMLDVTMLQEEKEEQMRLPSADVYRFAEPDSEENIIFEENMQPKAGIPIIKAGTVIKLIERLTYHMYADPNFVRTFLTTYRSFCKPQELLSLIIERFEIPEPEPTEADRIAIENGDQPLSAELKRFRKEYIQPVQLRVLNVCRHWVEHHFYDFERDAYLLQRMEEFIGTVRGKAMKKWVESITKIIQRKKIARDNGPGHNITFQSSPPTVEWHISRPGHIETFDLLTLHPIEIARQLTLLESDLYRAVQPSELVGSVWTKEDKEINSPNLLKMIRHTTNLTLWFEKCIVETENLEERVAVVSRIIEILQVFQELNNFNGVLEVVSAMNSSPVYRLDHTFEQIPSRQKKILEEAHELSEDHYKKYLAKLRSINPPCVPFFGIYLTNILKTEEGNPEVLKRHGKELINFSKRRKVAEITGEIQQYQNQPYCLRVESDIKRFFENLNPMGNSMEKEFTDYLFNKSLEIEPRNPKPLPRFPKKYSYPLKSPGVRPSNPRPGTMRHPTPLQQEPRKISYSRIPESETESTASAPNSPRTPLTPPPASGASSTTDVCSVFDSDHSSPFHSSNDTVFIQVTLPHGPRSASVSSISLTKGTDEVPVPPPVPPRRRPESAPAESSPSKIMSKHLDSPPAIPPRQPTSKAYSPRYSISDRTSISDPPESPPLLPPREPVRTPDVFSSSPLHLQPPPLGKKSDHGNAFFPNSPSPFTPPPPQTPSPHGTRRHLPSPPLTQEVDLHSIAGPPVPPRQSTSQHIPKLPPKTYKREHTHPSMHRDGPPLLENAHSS

[6] = system: MIA PaCa-2; assay: Effect on total MEK protein levels in overnight serum-starved human MIAPaCa2 cells at 20 to 40 uM by Western blotting analysis; type: ADME, cell-based; settings: mia paca-2, 40 µM
[7] = system: BXPC-3; assay: Effect on GADPH protein levels in overnight serum-starved human BxPC3 cells at 40 to 60 uM by Western blotting analysis; type: ADME, cell-based; settings: bxpc-3, 60 µM

inhibition [2]: Active
SMILES: O=C1Oc2ccccc2C(=O)/C1=C/N1C(=O)/C(=C/c2ccc([N+](=O)[O-])cc2)SC1=S
Activity [1]: Active
Activity [3]: Active

inhibition [4]: Active
SMILES: O=C(O)c1ccccc1-c1c2ccc3cc(O)ccc3c2oc2c1ccc1cc(=O)ccc12

inhibition [5]: inactive
SMILES: O=[N+]([O-])c1ccccc1/C=C/C=C1c2ccccc2-c2ccccc21
Activity [6]: Non-Toxic
Activity [7]: Toxic
